Laboratory results from patent publication US20080199899A1, “Method For Screening Modulators of Mitochondrial Functioning and New Modulators Obtained” (priority 2002, published 2008).
Non-standard residues stand in square brackets, D forms with d. Residues, ends and D or L forms follow the SMILES beside them. Phe(ol) = N[C@H](CO)Cc1ccccc1; Aib = CC(C)(N)C(=O)O

What was measured:
[1] = system: purified mouse liver mitochondria; assay: Real-time flow cytometry (FCM) analysis of mitochondrial morphology (FSC/SSC) on isolated mitochondria; type: biochemical; details: for changes of mitochondrial size (FSC) and structure (SSC) (in words): isolated mitochondria, 1-30 μM Ca2+, 20 μM CCCP, alamethicin 5 μg/ml; for induction of MMP / activity on isolated mitochondria (in words): real time test on isolated mitochondria
Procedure: (§1) Liver mitochondria were isolated from 3-4 weeks old Balb-c mice (IFFA CREDO, Saint Germain sur l'Arbresle, France). Animals were fasted overnight before being killed by […] dislocation. Liver mitochondria were prepared as described (Jacotot, 2000). All steps were carried out at 4° C. Finally, the organelles were resuspended in ‘swelling buffer’, composed by 200 mM sucrose, 5 mM succinate, 10 mM Tris-MOPS (pH 7.4), 1 mM H3PO4, 2 μM Rotenone, and 10 μM EGTA at pH=7.4. Spectrophotometric and flow cytometric analyses were performed in this buffer. The protein content of isolated mitochondria was determined by the Bradford assay.
Fluorescence-activated flow cytometry was performed using a 3-color FACSCalibur cytometer equipped with a 15 mW air-cooled 488 nm argon laser (Becton Dickinson, San Jose, Calif.). Mitochondria analyses were performed after appropriate settings of the Forward angle light scatter (FSC)—Side angle light scatter (SSC) detectors (see FIG. 1). Discrimination between mitochondria and cellular debris and noise background was performed by an appropriate gating on FSC-SSC scatter plots (FIG. 1) (Radcliff G, Jaroszeski M J 1998 Methods Mol Biol 91:1-24 Basics of flow cytometry). Systematic confirmation of the validity of this gating was obtained by a labeling of mitochondria with the ΔΨm-insensitive mitochondrial dye MitoTracker® Green (MTG, Molecular Probes, Eugene, Oreg.) (Jacotot et al., 2001). Briefly mitochondria (1.5 μg proteins) were respuspended in 400 μl swelling buffer containing 200 nM MTG for 15 min at room temperature. The organelles were immediately analyzed on the cytometer with the CellQuest Pro software (Becton Dickinson). MTG fluorescence was collected in the FL-1 channel (530+/−15 nm) and analyzed in logarithmic amplifier mode, using the PMT at a voltage adjusted to 907. Data from 20,000 gated mitochondria were recorded and analyzed.
Mitochondrial size was analyzed through the light scattered by the organelles at low angle using the Forward scatter (FSC) photodiode. Signals were collected using the E-00 setting, with a logarithmic amplification gain of 5.41. Mitochondrial structure was evaluated by the light scattered in the perpendicular direction. It was assessed by the sensitive Side scatter (SSC) photomultiplier tube (PMT), using a voltage of 581, and a linear amplification gain adjusted to 4.27. The morphological changes related to swelling of purified mitochondria were monitored by the increase in mitochondrial size (FSC) and the decrease in the organelle structure (SSC) using the CellQuest Pro software. The FSC/SSC ratio was calculated by the FCS Assistant software and permitted to integrate both variations in size and structure into only one parameter.
Real-time experiments were performed on mitochondrial samples containing 1.5 μg proteins in 800 μl (=2 ng/µl) of swelling buffer. Samples were acquired on the flow cytometer for 5 minutes to record basal morphological criteria. Then reagents were added to samples, and variations in light scattering were recorded for the following 15 minutes. The sample flow rate was settled to 12 μl+/−3 μl/min for both fixed- and real-time analyses.
Swelling curves were obtained after plotting FSC or SSC parameters versus time, and division of the time scale into discrete periods of 1 minute. The mean FSC and SSC of mitochondria from every period were calculated by the CellQuest Pro software, and were exported into the Microsoft Excel software.

[2] = system: purified mouse liver mitochondria; assay: Real-time FCM analysis of mitochondrial transmembrane potential (ΔΨm) with JC-1; type: biochemical; details: JC-1 loaded mitochondria; 20 μM mClCCP, 30 μM Ca2+ or 5 μM Alamethicin
Procedure: as §1
Mitochondrial transmembrane potential (ΔΨm) was assessed by 5,5′,6,6′,-tetracholoro-1,1,3,3′-tetraethylbenzimidazolyl carbocyanine iodide (JC-1, Molecular Probes) incorporation. This potential-sensitive cationic dye accumulates in the mitochdndrial matrix according to the Nernst equation (Reers et al., 1991). JC-1 green fluorescence, associated with JC-1 monomers was collected in the FL-1 channel. JC-1 orange fluorescence, associated with the formation of J-aggregates was collected in the FL-2 channel (585+/−21 nm) (Reers et al, 1991). Both fluorescences were recorded in logarithmic amplifier mode, using the PMT at a voltage adjusted to 907 and 622 respectively. Spectral overlap was avoided by adjusting compensation network as follows: FL1-18.5% FL2 and FL2-25.4% FL1. The JC-1 orange/green fluorescence ratio was calculated with the FCS Assistant software.
Real-time monitoring of ΔΨm was performed on mitochondrial samples containing 1.5 μg proteins in 400 μl of swelling buffer. […] Then drugs were added to the sample, and ΔΨm variations were recorded for the following 16 minutes. Depolarization curves were drawn as previously indicated for swelling curves; the time scale was divided into discrete periods of 1 minute and the mean of JC-1 orange and JC-1 green fluorescence of the corresponding mitochondrial subsets was calculated by the CellQuest Pro software and exported into the Microsoft Excel software.

[3] = system: purified mouse liver mitochondria; assay: FCM analysis of PTP-dependant and PTP-independent MMP after pre-treatment with inhibitors; type: biochemical; details: for effect on alamethicin induced MMP (in words): 50 μM BA, 10 μM CsA or 10 μM Ruthenium red, then alamethicin 5 μg/ml
Procedure: Mitochondrial Membrane Permeabilization (MMP) was induced by 1-30 μM Calcium (CaCl2, MERCK), and 5 μg/ml Alamethicin (SIGMA). Ruthenium Red (SIGMA) and the PTP inhibitor Cyclosporine A (CSA, BIOMOL) were added at 10 μM 4 minutes before the addition of the MMP-inducing agents. The uncoupler carbonyl cyanide m-chlorophenylhydrazone (mClCCP, SIGMA) was used at 20 μM to completely collapse A m.
Fixed-time analyses were performed on mitochondrial samples containing 10 μg proteins in 100 μl of swelling buffer. Samples were submitted to MPP-inducing reagents for 30 min at 25° C. Samples were immediately analyzed by flow cytometry, and data from 20.000 mitochondria were recorded. The percentage of specific swelling determined on forward scatter was calculated as follows;
Fixed-time detection of ΔΨm was performed on mitochondrial samples containing 10 μg proteins in 100 μl of swelling buffer. Samples were submitted to MPT-inducing drugs for 15 min at 25° C., and JC-1 was added at 800 nM for 15 min at 37° C. in the dark. Samples were immediately analyzed by flow cytometry, and data from 20.000 mitochondria (gated on FSC-SSC parameters) were recorded. This assay permitted to quantify the percentage of highly energized mitochondria (with both orange and green fluorescence) and depolarized mitochondria (with green fluorescence only) as depicted in part C2 of FIG. 1.
Mitochondria were exposed 5 minutes to 50 μM BA, 10 μM Csa, or 10 μM Ruthenium red followed by 30 min treatment with Ca^2+ (30 μM) or alamethicin (5 μg/ml). Then, mitochondria were subjected to FCM analysis of ΔΨm (JC-1 orange fluorescence) and SSC (Mean+/−SD; n=3).

[4] = system: mammary adenocarcinoma MDA-MD-231 cells; assay: Apoptosis by FACS analysis (ΔΨm loss and cell membrane permeability), adenocarcinoma cells; type: cell-based, human; details: Adenocarcinoma MDA-MD231 cells; 24 hours incubation with 5 to 20 μM peptide
Jurkat cells = assay: Apoptosis by FACS analysis (ΔΨm loss and cell membrane permeability), Jurkat cells; type: cell-based, human; details: 24 hours incubation with 5 to 20 μM peptide
HeLa cells = assay: Apoptosis of HeLa cells by fluorescent microscopy or FACS; type: cell-based, human; details: 5 or 10 μM, 24 or 48 h
Procedure: Characterization of apoptosis induced on cultured human cells by treatment with MMP inducing peptides. The example shown relates to peptide seq. ID no 3 […]. […] The peptide was then tested on cell: the HeLa cells in exponential growth phase were treated with peptide or mock treated, then analyzed by fluorescent microscopy or FACS to ascertain apoptosis.
Caspase-3 activation was performed using a fluorescent inhibitor of caspase-3 (FLICA, FAM-DEVD-FMK) from the CaspaTag™ kit (Intergen). The loss of plasma membrane integrity occurring during apoptosis of HeLa cells was determined by 7-Amino Actinomycin D. (7-AAD) incorporation (SIGMA). […] 7-AAD was added to cells at 37° C. for 15 min. Cells were trypsinized, resuspended in PBS and immediately acquired on the FACSCalibur. FAM-DEVD-FMK related fluorescence was detected using the Fl-1 channel. 7-AAD fluorescence was collected in the Fl-3 channel (>650 nm).
HeLa cells were stained by […] for 15 minutes and observe d using a DM IRB inverted fluorescence microscope (Leica).
HeLa cells were incubated for 24 or 48 h with 5 or 10 μM of peptide Seq. ID no 3 or left untreated. A. Cells were then stained with JC-1 and Hoechst dyes. […] B. Fluorescence microscopy of the cells, after 24 hours incubation with or without 5 μM peptide and staining with JC-1 dye. […]

[5] = system: purified mouse liver mitochondria; type: biochemical; details: FIG. 9A
Procedure: as §1
Large amplitude swelling was determined with Ultrospec 3300 pro […] (Amersham Pharmacia Bioech, Cambridge, England) by measuring Absorbance at 545 nm (A545) (Bernardi et al., 1992). […] Basal absorbance was recorded for 4 minutes, MPP-inducing reagents were added to samples and large amplitude swelling was monitored by the decrease in absorbance for the following 16 minutes. Data were recorded using the Data capture software (Excel, Uppsala, Sweden). […] Percentages of specific swelling were calculated as follows: (ACa2+−AReagent)×100/(ACa2+−Ainit) were ACa2+, AReagent and Ainit correspond to the absorbance value obtained for CaCl2-treated, reagent-treated and pre-treated mitochondria respectively.

isolated mitochondria = assay: Cytochrome C release from isolated mitochondria by western blot on the supernatant; type: biochemical, mouse; details: 10 μM peptide, 30 minutes; FIG. 9B
Procedure: B. Cytochrome C release: untreated mitochondria (1), or treated with 5 μM Alamethicin (2) or 10 μM peptide seq. ID No 2 during 30 minutes were assayed for cytochrome C release by western blot on the supernatant.

[6] = 50 μM BA or 10 μM CsA 5 min, then 30 μM Ca2+ 30 min

N#CC(C#N)=NNc1cccc(Cl)c1 [CCCP, carbonyl cyanide meta-chlorophenylhydrazone]
changes of mitochondrial size (FSC) and structure (SSC) (in words) [1]: low but significant granularity (SSC) decrease without detectable size (FSC) changes | changes of JC-1 orange fluorescence (ΔΨm) (in words) [2]: rapid decrease in JC-1 orange fluorescence

[Ca+2] [Calcium]
changes of mitochondrial size (FSC) and structure (SSC) (in words) [1]: dose-dependent SSC decrease and FSC increase | changes of JC-1 orange fluorescence (ΔΨm) (in words) [2]: decrease in JC-1 orange fluorescence

N.N.N.N.N.N.N.N.N.N.N.N.N.N.[Cl-].[Cl-].[Cl-].[Cl-].[Cl-].[Cl-].[O-2].[O-2].[Ru+3].[Ru+3].[Ru+4] [Ruthenium red]
inhibition of Ca2+ induced SSC decrease ([3]; 10 μM Ruthenium red 5 min, then 30 μM Ca2+ 30 min): 80% | inhibition of Ca2+ induced ΔΨm loss ([3]; 10 μM Ruthenium red 5 min, then 30 μM Ca2+ 30 min, JC-1 orange fluorescence): 80% | effect on alamethicin induced MMP (in words) [3]: not affected

CC(=O)NC(C)(C)C(=O)N1CCC[C@H]1C(=O)NC(C)(C)C(=O)N[C@@H](C)C(=O)NC(C)(C)C(=O)N[C@@H](C)C(=O)N[C@@H](CCC(N)=O)C(=O)NC(C)(C)C(=O)N[C@H](C(=O)NC(C)(C)C(=O)NCC(=O)N[C@@H](CC(C)C)C(=O)NC(C)(C)C(=O)N1CCC[C@H]1C(=O)N[C@H](C(=O)NC(C)(C)C(=O)NC(C)(C)C(=O)N[C@@H](CCC(=O)O)C(=O)N[C@@H](CCC(N)=O)C(=O)N[C@H](CO)Cc1ccccc1)C(C)C)C(C)C [alamethicin] (Ac-[Aib]P[Aib]A[Aib]AQ[Aib]V[Aib]GL[Aib]PV[Aib][Aib]EQ[Phe(ol)])
changes of mitochondrial size (FSC) and structure (SSC) (in words) [1]: simultaneous FSC increase and SSC decrease | changes of JC-1 orange fluorescence (ΔΨm) (in words) [2]: decrease in JC-1 orange fluorescence

CO[C@H](C/C=C\C=C\CC/C=C/C[C@H](C)/C=C/C(=C\C(=O)O)CC(=O)O)/C(C)=C\C=C(/C)C(=O)O [bongkrekic acid]
effect on Ca2+ induced SSC decrease (in words) [3, 6]: partly affect | effect on Ca2+ induced ΔΨm loss (in words) [3, 6]: strongly reduces | effect on alamethicin induced MMP (in words) [3]: not affected

EHWSYWLRPG-GGGGS
induction of MMP / activity on isolated mitochondria (in words) [1]: not active on mitochondria | % of apoptotic cells [4]: 7% | % of apoptotic cells (Jurkat cells): 8%

EHWSYWLRPGGGGGSLLFIHFRIGCRHSRIG [SEQ ID N^o 11]
% of apoptotic cells [4]: 92% | % of apoptotic cells (Jurkat cells): 18%

GG*CRGDMFG*CG
induction of MMP / activity on isolated mitochondria (in words) [1]: not found inducing MMP

RKKRRQRRRCGGLANKKGAWLDSTKATRYLVKTESWILRN [SEQ ID N^o 4]
apoptosis of HeLa cells (in words) (HeLa cells): mitochondrio-toxic activity

RKKRRQRRRCGGLETRTETWMSSEGAWKQIQKVETWALRH [SEQ ID N^o 3]
apoptosis of HeLa cells (in words) (HeLa cells): induction of apoptosis in a dose and time related effect | specific swelling of isolated mitochondria (in words) [5]: dose-dependant specific swelling | release of Cytochrome C from isolated mitochondria (isolated mitochondria): release of Cytochrome C
